# Laboratory results as given in US12552748B2, “Pyridine (thio)amides as fungicidal compounds” (Bayer Aktiengesellschaft, priority 2020, dated 2026).
# Marks after values point to notes of the source that are not given here.
# Experiments:
# [1] = physchem; assay type: physicochemical
# Method in brief: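 Reversed-phase HPLC per EEC directive 79/831 Annex V.A8, calibrated with straight-chain alkan-2-ones (C3–C16) of known Log P via linear interpolation of retention times. Lambda-max from UV spectra 200–400 nm at chromatographic peaks.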
# [2] = system: Botrytis cinerea; test: In vivo preventive test on Botrytis cinerea (grey mould); conditions: 500 ppm of active ingredient, preventive spray on gherkin or cabbage, evaluated 4 to 5 days after inoculation, 0% = control plants, 100% = no disease, read-out: efficacy
# Method: (§1) B-2. In Vivo Preventive Test on Botrytis cinerea (Grey Mould [table] The active ingredients were made soluble and homogenized in a mixture of Dimethyl sulfoxide/Acetone/Tween® 80 and then diluted in water to the desired concentration. The young plants of gherkin or cabbage were treated by spraying the active ingredient prepared as described above. Control plants were treated only with an aqueous solution of Acetone/Dimethyl sulfoxide/Tween® 80. After 24 hours, the plants were contaminated by spraying the leaves with an aqueous suspension of Botrytis cinerea spores.
# [3] = system: Sphaerotheca fuliginea; test: In vivo preventive test on Sphaerotheca fuliginea (powdery mildew on cucurbits); conditions: Podosphaera fuliginea, 192 h; 500 ppm of active ingredient; preventive spray on gherkin; evaluated 8 days after inoculation; 0% = control plants, 100% = no disease; read-out: efficacy
# Method: as §1, with “B-4.” for “B-2.”, “Sphaerotheca fuliginea (Powdery Mildew on Cucurbits” for “Botrytis cinerea (Grey Mould”, “gherkin” for “gherkin or cabbage”, “Sphaerotheca fuliginea” for “Botrytis cinerea”
# [4] = system: Alternaria alternata; test: Alternaria alternata in vitro cell test; assay type: cell-based; conditions: 120 h, 20 ppm of active ingredient, liquid culture with spores, 5 days incubation, spectrometric measurement of mycelium growth, read-out: efficacy (inhibition of fungal growth)
# Method: (§2) B-6. Alternaria alternata In Vitro Cell Test • Solvent: DMSO • Culture medium: 14.6 g anhydrous D-glucose (VWR), 7.1 g Mycological Peptone (Oxoid), 1.4 g granulated Yeast Extract (Merck), QSP 1 liter • Inoculum: spores suspension Fungicides were solubilized in DMSO and the solution used to prepare the required range of concentrations. […] A spore suspension of A. alternata was prepared and diluted to the desired spore density. Fungicides were evaluated for their ability to inhibit spore germination and mycelium growth in liquid culture assay. The compounds were added in the desired concentration to the culture medium with spores. After 5 days incubation, fungi-toxicity of compounds was determined by spectrometric measurement of mycelium growth. Inhibition of fungal growth was determined by comparing the absorbance values in wells containing the fungicides with the absorbance in control wells without fungicides.
# [5] = system: Pyricularia oryzae; test: microbe, parasite or virus in culture; assay type: cell-based; conditions: 120 h, read-out: efficacy (inhibition of fungal growth)
# [6] = system: Colletotrichum lindemuthianum; test: Colletotrichum lindemuthianum in vitro cell test; assay type: cell-based; conditions: 144 h, read-out: efficacy (inhibition of fungal growth)
# Method: B-8. Colletotrichum lindemuthianum In Vitro Cell Test
# • Solvent: DMSO • Culture medium: 14.6 g anhydrous D-glucose (VWR), 7.1 g Mycological Peptone (Oxoid), 1.4 g granulated Yeast Extract (Merck), QSP 1 liter • Inoculum: spores suspension
# Fungicides were solubilized in DMSO and the solution used to prepare the required range of concentrations. The final concentration of DMSO used in the assay was ≤1%.
# A spore suspension of C. lindemuthianum was prepared and diluted to the desired spore density.
# Fungicides were evaluated for their ability to inhibit spores germination and mycelium growth in liquid culture assay. The compounds were added in the desired concentration to the culture medium with spores. After 6 days incubation, fungi-toxicity of compounds was determined by spectrometric measurement of mycelium growth. Inhibition of fungal growth was determined by comparing the absorbance values in wells containing the fungicides with the absorbance in control wells without fungicides.
# [7] = system: Pyrenophora teres; test: Pyrenophora teres in vitro cell test; assay type: cell-based; conditions: 144 h, 20 ppm of active ingredient, liquid culture with spores, 6 days incubation, spectrometric measurement of mycelium growth, read-out: efficacy (inhibition of fungal growth)
# Method: as §2, with “B-9. Pyrenophora Teres In” for “B-6. Alternaria alternata In”, “Inoculum: spore” for “Inoculum: spores”, “of P. teres” for “of A. alternata”, “After 6” for “After 5”
Structure (SMILES),chromatographic logP [1],pest or weed control at 500 ppm [2],pest or weed control at 500 ppm [3],inhibition at 20 ppm [4],inhibition at 20 ppm [5],inhibition at 20 ppm [6],inhibition at 20 ppm [7],LogP [1]
"Cc1ccc(CCNC(=O)c2cc(Cl)nc(F)c2Oc2cccc(C(F)(F)F)c2)c(C)c1 [Compound I-018, 6-chloro-N-[2-(2,4-dimethylphenyl)ethyl]-2-fluoro-3-[3-(trifluoromethyl)phenoxy]pyridine-4-carboxamide]",4.95,90 to 100%,90 to 100%,,,,,
"Cc1ccc(C(F)(F)CNC(=O)c2c(Oc3cccc(C(F)(F)F)c3)cnc(Cl)c2C)c(C)c1 [Compound I-019, 2-chloro-N-[2-(2,4-dimethylphenyl)-2,2-difluoro-ethyl]-3-methyl-5-[3-(trifluoromethyl)phenoxy]pyridine-4-carboxamide]",4.64,90 to 100%,90 to 100%,90 to 100%,90 to 100%,90 to 100%,,
"CCc1ccc(C(F)(F)CNC(=O)c2cc(Cl)ncc2Oc2cccc(C(F)(F)F)c2)c(Cl)c1 [Compound I-034, 2-chloro-N-[2-(2-chloro-4-ethyl-phenyl)-2,2-difluoro-ethyl]-5-[3-(trifluoromethyl)phenoxy]pyridine-4-carboxamide]",4.98,90 to 100%,90 to 100%,80 to 89%,,,,
"Cc1ccc(CCNC(=O)c2cc(NC3CC3)ncc2Oc2cccc(C(F)(F)F)c2)c(C)c1 [Compound I-050, 2-(cyclopropylamino)-N-[2-(2,4-dimethylphenyl)ethyl]-5-[3-(tri-fluoromethyl)phenoxy]pyridine-4-carboxamide]",3.77,90 to 100%,,90 to 100%,,,,
"Cc1ccc(C(F)(F)CNC(=O)c2c(Oc3cccc(C(F)(F)F)c3)cnc(Cl)c2I)c(C)c1 [Compound I-057, 2-chloro-N-[2-(2,4-dimethylphenyl)-2,2-difluoro-ethyl]-3-iodo-5-[3-(trifluoromethyl)phenoxy]pyridine-4-carboxamide]",4.8,90 to 100%,90 to 100%,90 to 100%,,,,
"CC(=O)c1cc(C(=O)NCCc2ccc(C)cc2C)c(Oc2cccc(C(F)(F)F)c2)cn1 [Compound I-087, 2-acetyl-N-[2-(2,4-dimethylphenyl)ethyl]-5-[3-(trifluoromethyl)phenoxy]pyridine-4-carboxamide]",4.47,90 to 100%,80 to 89%,90 to 100%,80 to 89%,80 to 89%,,
"Cc1ccc(CCNC(=S)c2cc(Cl)ncc2Oc2cccc(C(F)(F)F)c2)c(C)c1 [Compound I-115, 2-chloro-N-[2-(2,4-dimethylphenyl)ethyl]-5-[3-(trifluoromethyl)phenoxy]pyridine-4-carbothioamide]",5.42,90 to 100%,90 to 100%,,,,,
"O=C(NCC(F)(F)c1ccc(C2CCCC2)cc1Cl)c1cc(Cl)ncc1Oc1cccc(C(F)F)c1 [Compound I-124, 2-chloro-N-[2-(2-chloro-4-cyclopentyl-phenyl)-2,2-difluoro-ethyl]-5-[3-(difluoromethyl)phenoxy]pyridine-4-carboxamide]",5.5,,,,,,90 to 100%,
"Cc1ccc(CCNC(=O)c2cc(Cl)ncc2Oc2ccc3c(c2)OC(F)(F)O3)c(C)c1 [Compound I-140, 2-chloro-5-[(2,2-difluoro-1,3-benzodioxol-5-yl)oxy]-N-[2-(2,4-dimethylphenyl)ethyl]pyridine-4-carboxamide]",4.82,70 to 79%,90 to 100%,,,,90 to 100%,
"Cc1ccc(C(F)(F)CNC(=O)c2c(Oc3cccc(C(F)(F)F)c3)cnc(Cl)c2-n2cccn2)c(C)c1 [Compound I-167, 2-chloro-N-[2-(2,4-dimethylphenyl)-2,2-difluoroethyl]-3-(1H-pyrazol-1-yl)-5-[3-(trifluoromethyl)phenoxy]pyridine-4-carboxamide]",4.51,90 to 100%,90 to 100%,90 to 100%,80 to 89%,80 to 89%,90 to 100%,
Cc1ccc(CCNC(=O)c2cc(Cl)ncc2Oc2ccc(C)c(Cl)c2)c(C)c1 [Compound I-268],,,,,,,,5.23^[a]
